Patent publication US12435044B2, “Pyridazinone herbicides and pyridazinone intermediates used to prepare a herbicide” (FMC Corporation, priority 2018, dated 2025)

How the values were obtained:
Type in all cases: in vivo
[1] = system: lambsquarters (Chenopodium album); assay: Test D postemergence controlled growth environment test
From the text: Seeds of plant species selected from blackgrass (Alopecurus myosuroides), galium (catchweed bedstraw, Galium aparine), kochia (Kochia scoparia), oilseed rape (Brassica napus), barley, spring (Hordeum vulgare), wheat, spring (Triticum aestivum), oat, wild (Avena fatua), barley, winter (Hordeum vulgare) and wheat, winter (Triticum aestivum) were planted into a silt loam soil and treated preemergence with test chemicals formulated in a non-phytotoxic solvent mixture which included a surfactant.
At the same time, plants selected from these crop and weed species and also bluegrass (annual bluegrass, Poa annua), canarygrass (littleseed canarygrass, Phalaris minor), chickweed (common chickweed, Stellaria media), bromegrass, downy (downy bromegrass, Bromus tectorum), field poppy (Papaver rhoeas), field violet (Viola arvensis), foxtail, green (Setaria viridis), deadnettle (henbit deadnettle, Lamium amplexicaule), ryegrass, Italian (Lolium multiflorum), lambsquarters (Chenopodium album), pigweed (Amaranthus retroflexus), chamomile (scentless chamomile, Matricaria inodora), Russian thistle (Salsola kali), speedwell (bird's-eye speedwell, Veronica persica), buckwheat, wild (Polygonum convolvulus), mustard, wild (Sinapis arvensis), radish, wild (Raphanus raphanistrum), windgrass (Apera spica-venti), geranium, cutleaf (Geranium dissectum) and Canada thistle (Cirsium arvense) were planted in pots containing Redi-Earth® planting medium (Scotts Company, 14111 Scottslawn Road, Marysville, Ohio 43041) comprising spaghnum peat moss, vermiculite, wetting agent and starter nutrients and treated with postemergence applications of the test chemicals formulated in the same manner. Plants ranged in height from 2 to 18 cm (1- to 4-leaf stage). Treated plants and controls were maintained in a controlled growth environment for 14 to 21 d after which time all species were compared to controls and visually evaluated. Plant response ratings, summarized in Table D, are based on a scale of 0 to 100 where 0 is no effect and 100 is complete control. A dash (-) response means no test result.

[2] = system: arrowleaf sida (Sida rhombifolia); assay: Test E pre-/postemergence greenhouse test
From the text: (§1) Seeds of plant species selected from corn (Zea mays), soybean (Glycine max), velvetleaf (Abutilon theophrasti), lambsquarters (Chenopodium album), poinsettia, wild (Euphorbia heterophylla), pigweed, palmer (Amaranthus palmeri), waterhemp (common waterhemp, Amaranthus rudis), surinam grass (Brachiaria decumbens), crabgrass, large (Digitaria sanguinalis), crabgrass, Brazil (Digitaria horizontalis), panicum, fall (Panicum dichotomiflorum), foxtail, giant (Setaria faberii), foxtail, green (Setaria viridis), goosegrass (Eleusine indica), johnsongrass (Sorghum halepense), ragweed (common ragweed, Ambrosia elatior), barnyardgrass (Echinochloa crus-galli), sandbur (southern sandbur, Cenchrus echinatus), arrowleaf sida (Sida rhombifolia), ryegrass, Italian (Lolium multiflorum), dayflower, VA (Virginia (VA) dayflower, Commelina virginica), field bindweed (Convolvulus arvensis), morningglory (Ipomoea coccinea), horseweed (Conyza canadensis), kochia (Kochia scoparia), nutsedge, yellow (Cyperus esculentus) and hairy beggarticks (Bidenspilosa), were planted into a silt loam soil and treated preemergence with test chemicals formulated in a non-phytotoxic solvent mixture which included a surfactant.
(§2) At the same time, plants selected from these crop and weed species and also waterhemp_RES1, (ALS & Triazine resistant common waterhemp, Amaranthus rudis), and waterhemp_RES2, (ALS & HPPD resistant common waterhemp, Amaranthus rudis) were planted in pots containing Redi-Earth® planting medium (Scotts Company, 14111 Scottslawn Road, Marysville, Ohio 43041) comprising spaghnum peat moss, vermiculite, wetting agent and starter nutrients were treated with postemergence applications of test chemicals formulated in the same manner. Plants ranged in height from 2 to 18 cm for postemergence treatments (1- to 4-leaf stage). Treated plants and controls were maintained in a greenhouse for 14 to 21 d, after which time all species were compared to controls and visually evaluated. Plant response ratings, summarized in Table E, are based on a scale of 0 to 100 where 0 is no effect and 100 is complete control. A dash (-) response means no test result.

[3] = system: dayflower, VA (Virginia (VA) dayflower, Commelina virginica); assay: Test E pre-/postemergence greenhouse test
From the text: as §1, §2

[4] = system: field bindweed (Convolvulus arvensis); assay: Test E pre-/postemergence greenhouse test
From the text: as §1, §2

[5] = system: foxtail, green (Setaria viridis); assay: Test E pre-/postemergence greenhouse test; details: Preemergence
From the text: as §1, §2

[6] = system: goosegrass (Eleusine indica); assay: Test E pre-/postemergence greenhouse test; details: Preemergence
From the text: as §1, §2

[7] = system: hairy beggarticks (Bidenspilosa); assay: Test E pre-/postemergence greenhouse test
From the text: as §1, §2

[8] = system: johnsongrass (Sorghum halepense); assay: Test E pre-/postemergence greenhouse test; details: Preemergence
From the text: as §1, §2

kochia (Kochia scoparia) = assay: Test E pre-/postemergence greenhouse test
From the text: as §1, §2

[9] = system: lambsquarters (Chenopodium album); assay: Test E pre-/postemergence greenhouse test; details: Preemergence
From the text: as §1, §2

[10] = system: morningglory (Ipomoea coccinea); assay: Test E pre-/postemergence greenhouse test; details: Preemergence
From the text: as §1, §2

## Cc1ccc2ccc(C)c(-c3c(O)c(Cl)nn(C)c3=O)c2c1 [Cpd. No. 20, 6-chloro-4-(2,7-dimethyl-1-naphthalenyl)-5-hydroxy-2-methyl-3(2H)-pyridazinone]
[1]; 16 g ai/ha
  Plant response rating, Lambsquarters: 90
[1]; 31 g ai/ha
  Plant response rating, Lambsquarters: 95
[1]; 62 g ai/ha
  Plant response rating, Lambsquarters: 90
[1]; 125 g ai/ha
  Plant response rating, Lambsquarters: 98
[2]; Postemergence, 16 g ai/ha
  Plant response rating, Arrowleaf Sida: 60
[2]; Postemergence, 31 g ai/ha
  Plant response rating, Arrowleaf Sida: 70
[2]; Postemergence, 62 g ai/ha
  Plant response rating, Arrowleaf Sida: 70
[2]; Postemergence, 125 g ai/ha
  Plant response rating, Arrowleaf Sida: 75
[2]; Preemergence, 16 g ai/ha
  Plant response rating, Arrowleaf Sida: 90
[2]; Preemergence, 31 g ai/ha
  Plant response rating, Arrowleaf Sida: 90
[2]; Preemergence, 62 g ai/ha
  Plant response rating, Arrowleaf Sida: 80
[2]; Preemergence, 125 g ai/ha
  Plant response rating, Arrowleaf Sida: 85
[3]; Postemergence, 16 g ai/ha
  Plant response rating, Dayflower, VA: 30
[3]; Postemergence, 31 g ai/ha
  Plant response rating, Dayflower, VA: 50
[3]; Postemergence, 62 g ai/ha
  Plant response rating, Dayflower, VA: 60
[3]; Postemergence, 125 g ai/ha
  Plant response rating, Dayflower, VA: 70
[3]; Preemergence, 16 g ai/ha
  Plant response rating, Dayflower, VA: 0
[3]; Preemergence, 31 g ai/ha
  Plant response rating, Dayflower, VA: 0
[3]; Preemergence, 62 g ai/ha
  Plant response rating, Dayflower, VA: 0
[3]; Preemergence, 125 g ai/ha
  Plant response rating, Dayflower, VA: 5
[4]; Postemergence, 16 g ai/ha
  Plant response rating, Field Bindweed: 75
[4]; Postemergence, 31 g ai/ha
  Plant response rating, Field Bindweed: 90
[4]; Postemergence, 62 g ai/ha
  Plant response rating, Field Bindweed: 90
[4]; Postemergence, 125 g ai/ha
  Plant response rating, Field Bindweed: 90
[4]; Preemergence, 16 g ai/ha
  Plant response rating, Field Bindweed: 5
[4]; Preemergence, 31 g ai/ha
  Plant response rating, Field Bindweed: 85
[4]; Preemergence, 62 g ai/ha
  Plant response rating, Field Bindweed: 90
[4]; Preemergence, 125 g ai/ha
  Plant response rating, Field Bindweed: 100
[5]; 16 g ai/ha
  Plant response rating, Foxtail, Green: 35
[5]; 31 g ai/ha
  Plant response rating, Foxtail, Green: 80
[5]; 62 g ai/ha
  Plant response rating, Foxtail, Green: 100
[5]; 125 g ai/ha
  Plant response rating, Foxtail, Green: 100
[6]; 16 g ai/ha
  Plant response rating, Goosegrass: 0
[6]; 31 g ai/ha
  Plant response rating, Goosegrass: 0
[6]; 62 g ai/ha
  Plant response rating, Goosegrass: 30
[6]; 125 g ai/ha
  Plant response rating, Goosegrass: 75
[7]; Postemergence, 16 g ai/ha
  Plant response rating, Beggarticks: 90
[7]; Postemergence, 31 g ai/ha
  Plant response rating, Beggarticks: 95
[7]; Postemergence, 62 g ai/ha
  Plant response rating, Beggarticks: 95
[7]; Postemergence, 125 g ai/ha
  Plant response rating, Beggarticks: 100
[7]; Preemergence, 16 g ai/ha
  Plant response rating, Beggarticks: 20
[7]; Preemergence, 31 g ai/ha
  Plant response rating, Beggarticks: 90
[7]; Preemergence, 62 g ai/ha
  Plant response rating, Beggarticks: 95
[7]; Preemergence, 125 g ai/ha
  Plant response rating, Beggarticks: 100
[8]; 16 g ai/ha
  Plant response rating, Johnsongrass: 0
[8]; 31 g ai/ha
  Plant response rating, Johnsongrass: 0
[8]; 125 g ai/ha
  Plant response rating, Johnsongrass: 50
Kochia (Kochia scoparia); Postemergence, 16 g ai/ha
  Plant response rating, Kochia: 80
Kochia (Kochia scoparia); Postemergence, 31 g ai/ha
  Plant response rating, Kochia: 75
Kochia (Kochia scoparia); Postemergence, 62 g ai/ha
  Plant response rating, Kochia: 80
Kochia (Kochia scoparia); Postemergence, 125 g ai/ha
  Plant response rating, Kochia: 90
Kochia (Kochia scoparia); Preemergence, 16 g ai/ha
  Plant response rating, Kochia: 0
Kochia (Kochia scoparia); Preemergence, 31 g ai/ha
  Plant response rating, Kochia: 50
Kochia (Kochia scoparia); Preemergence, 62 g ai/ha
  Plant response rating, Kochia: 70
Kochia (Kochia scoparia); Preemergence, 125 g ai/ha
  Plant response rating, Kochia: 85
[9]; 16 g ai/ha
  Plant response rating, Lambsquarters: 80
[9]; 31 g ai/ha
  Plant response rating, Lambsquarters: 95
[9]; 62 g ai/ha
  Plant response rating, Lambsquarters: 98
[9]; 125 g ai/ha
  Plant response rating, Lambsquarters: 100
[10]; 16 g ai/ha
  Plant response rating, Morningglory: 10
[10]; 31 g ai/ha
  Plant response rating, Morningglory: 20
[10]; 62 g ai/ha
  Plant response rating, Morningglory: 60
[10]; 125 g ai/ha
  Plant response rating, Morningglory: 100
